Test results reported in ChEMBL document CHEMBL4706678, “Trivalent sulfonium compounds (TSCs): Tetrahydrothiophene-based amphiphiles exhibit similar antimicrobial activity to analogous ammonium-based amphiphiles” (Bioorg Med Chem Lett, 2021).

How the values were obtained:
Staphylococcus aureus [1] = assay: Antimicrobial activity against methicillin-susceptible Staphylococcus aureus SH1000 assessed as inhibition of microbial growth; format: functional
Staphylococcus aureus [2] = assay: microbe, parasite or virus in culture; format: functional; settings: ATCC 33591
Description: Antimicrobial activity against hospital acquired methicillin-resistant Staphylococcus aureus ATCC 33591 assessed as inhibition of microbial growth

Staphylococcus aureus [3] = assay: Antimicrobial activity against community acquired methicillin-resistant Staphylococcus aureus USA300 assessed as inhibition of microbial growth; format: functional
Enterococcus faecalis = assay: Antimicrobial activity against Enterococcus faecalis OG1RF assessed as inhibition of microbial growth; format: functional
Pseudomonas aeruginosa = assay: Antimicrobial activity against Pseudomonas aeruginosa PAO1 assessed as inhibition of microbial growth; format: functional
Escherichia coli = assay: Antimicrobial activity against Escherichia coli MC4100 assessed as inhibition of microbial growth; format: functional
Erythrocyte = assay: Hemolytic activity against human RBC assessed as concentration required to cause >20% hemolysis; format: ADME, cell-based

SMILES | MIC (Staphylococcus aureus [1]) [µM] | MIC (Staphylococcus aureus [2]) [µM] | MIC (Staphylococcus aureus [3]) [µM] | MIC (Enterococcus faecalis) [µM] | MIC (Pseudomonas aeruginosa) [µM] | MIC (Escherichia coli) [µM] | HC20 (Erythrocyte) [µM]
C[N+]1(CCCCCCCCCC[N+]2(C)CCCC2)CCCC1.[Br-].[Br-] | > 250 | > 250 | > 250 | > 250 | > 250 | > 250 | 125
CCCCCCCCCCCCCCCC[N+]1(C)CCCC1.[Br-] | 4 | 8 | 2 | > 250 | > 250 | 125 | 16
CCCCCCCCCCCCCC[N+]1(C)CCCC1.[Br-] | 4 | 16 | 8 | > 250 | > 250 | 250 | 32
C[N+]1(CCCCCCCCCCCC[N+]2(C)CCCC2)CCCC1.[Br-].[Br-] | > 250 | > 250 | > 250 | > 250 | > 250 | > 250 | 125
CCCCCCCCCCCC[N+]1(C)CCCC1.[Br-] | 32 | 125 | 32 | > 250 | > 250 | > 250 | 125
CCCCCCCCCCCCCCCC[n+]1ccccc1.[Cl-] |  |  |  |  |  |  | 8
C(CCCC[S+]1CCCC1)CCC[S+]1CCCC1.[I-].[I-] | > 250 | > 250 | > 250 | > 250 | > 250 | > 250 | 125
CCCCCCCCCCCC[S+]1CCCC1.[I-] | 16 | 125 | 16 | > 250 | > 250 | > 250 | 125
CCCCCCCCCCCCCC[S+]1CCCC1.[I-] | 4 | 32 | 4 | > 250 | > 250 | 250 | 16
CCCCCCCC[S+]1CCCC1.[I-] | > 250 | > 250 | > 250 | > 250 | > 250 | > 250 | 125
CCCCCCCCCC[N+]1(C)CCCC1.[Br-] | > 250 | > 250 | > 250 | > 250 | > 250 | > 250 | 250
CCCCCCCCCCC[N+]1(C)CCCC1.[Br-] | 125 | > 250 | 125 | > 250 | > 250 | > 250 | 125
CCCCCCCCCCCCCCCCCC[S+]1CCCC1.[I-] | 1 | 8 | 4 | > 250 | 250 | 63 | 16
C(CCCCC[S+]1CCCC1)CCCC[S+]1CCCC1.[I-].[I-] | 250 | > 250 | 250 | > 250 | > 250 | > 250 | 125
CCCCCCCC[N+]1(C)CCCC1.[Br-] | > 250 | > 250 | > 250 | > 250 | > 250 | > 250 | 125
CCCCCCCCCCCCC[N+]1(C)CCCC1.[Br-] | 8 | 63 | 16 | > 250 | > 250 | > 250 | 63
C(CCCCCC[S+]1CCCC1)CCCCC[S+]1CCCC1.[I-].[I-] | 250 | > 250 | 250 | > 250 | > 250 | > 250 | 250
CCCCCCCCCCC[S+]1CCCC1.[I-] | 125 | 250 | 250 | > 250 | > 250 | > 250 | 125
CCCCCCCCCCCCCCCCCC[N+]1(C)CCCC1.[Br-] | 2 | 8 | 4 | > 250 | 250 | 63 | 16
CCCCCCCCCCCCC[S+]1CCCC1.[I-] | 8 | 125 | 32 | > 250 | > 250 | > 250 | 63
CCCCCCCCCC[S+]1CCCC1.[I-] | 250 | > 250 | 250 | > 250 | > 250 | > 250 | 125
C[N+]1(CCCCCCCC[N+]2(C)CCCC2)CCCC1.[Br-].[Br-] | > 250 | > 250 | > 250 | > 250 | > 250 | > 250 | 125
CCCCCCCCCCCCCCCC[S+]1CCCC1.[I-] | 2 | 8 | 4 | > 250 | > 250 | 125 | 16
